Assay [1] concerns SMN2 Splicing D7 (SMN Δ7 transcript). Put plainly: SMN Quantitative Splicing Assay (qPCR). The class given is cell-based, human. The note with it: Homo sapiens, Fibroblast, 24 h, SMA patient fibroblasts (GM03813), 2.5 µM to 0.6 nM. The method, then:
Spinal muscular atrophy (SMA) patient fibroblasts (GM03813, Coriell) were plated in 96-well plates at 50,000 cells/well. […] Treated cells were lysed and cDNA synthesized using the Fast Advanced Cells-to-Ct kit (Thermofisher A35378) according to the manufacturer’s instructions. 2 µL of each cDNA were used in qPCR reactions. […] Reactions were run in a Quant Studio 6 qPCR instrument with default settings.
In general terms: In qPCR the cycle at which signal appears reflects the starting amount.

In a further assay the test system is SMN2 Protein. Put plainly: SMN Protein Assay (MSD). To be noted: SMA patient fibroblasts, 48 hours, 0.6 nM to 2.5 µM. The class given is cell-based, human. The essentials: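 SMA patient fibroblasts at 7,000 cells/well treated 48 h with compound from 0.6 nM to 2.5 µM, then lysed. SMN protein in lysate quantified by Mesoscale Discovery immunoassay against an SMN standard curve (19.5 pg/ml–1 µg/ml), giving absolute amounts.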

For `CN(c1cnc(-c2cc3c(F)cn(C)c(=O)c3cc2O)nn1)C1CC2CCCC(N2)[C@H]1F` (some centres unmarked) [Compound 137], in assay [1], the IC50 (as a rule, the point on the concentration scale where inhibition reaches its midpoint) lay within 0.01 to 15 nM. The EC50 (in general, the concentration that produces a half-maximal response) with SMN2 Protein fell in the range of 0.01 to 15 nM.
With `CN(c1cnc(-c2cc3cnn(C)c(=O)c3cc2O)nn1)[C@H]1C[C@]2(C)COC[C@](C)(C1)N2` [Compound 151], the IC50 in assay [1] fell in the range of 0.01 to 15 nM. Further, the EC50 with SMN2 Protein is 0.01 to 15 nM.
In the case of `Cc1cnc2cc(-c3ncc(N(C)[C@@H]4CC5CCCC(N5)[C@@H]4F)nn3)c(O)cc2n1` (some centres unmarked) [Compound 105], the IC50 in assay [1] fell in the range of 101 to 500 nM. The molecule further registered an EC50 with SMN2 Protein of 16 to 50 nM.
The like results for `CN(c1cnc(-c2cc3ncn(C)c(=O)c3cc2O)nn1)C1C[C@@]2(C)CCC(N2)[C@@H]1F` (some centres unmarked) [Compound 35] were, in that order, 0.01 to 15 nM and 0.01 to 15 nM.
The like results for `Cc1cnc2cc(-c3ncc(N(C)[C@H]4C[C@@H]5CCC(N5)[C@H]4F)nn3)c(O)cc2n1` (single isomer, unassigned) [Compound 54] were, in that order, 16 to 50 nM and 101 to 500 nM.
In turn, `[2H]C([2H])([2H])N(c1cnc(-c2cc3c(F)cn(CC)c(=O)c3cc2O)nn1)[C@@H]1C[C@H]2CC[C@H](N2)[C@@H]1F` [Compound 202] registered an IC50 in assay [1] of 51 to 100 nM. Further, in the assay on SMN2 Protein, the EC50 fell in the range of 0.01 to 15 nM.
As for `Cc1c(F)c2cc(-c3ncc(N(C)[C@H]4C[C@@H]5CC[C@@H](N5)[C@H]4F)nn3)c(O)cc2c(=O)n1C` [Compound 204], in assay [1], the IC50 fell in the range of 0.01 to 15 nM. The molecule also returned an EC50 with SMN2 Protein of 0.01 to 15 nM.
Regarding `[2H]C([2H])([2H])N(c1cnc(-c2cc3c(F)cn(CC)c(=O)c3cc2O)nn1)[C@H]1C[C@@H]2CC[C@@H](N2)[C@H]1F` [Compound 201], in assay [1], the IC50 lay in the range of 0.01 to 15 nM. The molecule further came in with an EC50 in the assay with SMN2 Protein of 0.01 to 15 nM.
`CN(c1cnc(-c2cc3oc(C(F)(F)F)cc(=O)c3cc2O)nn1)[C@H]1C[C@@H]2CCC(N2)[C@H]1F` [Compound 80]: the IC50 in assay [1] was in the range of 0.01 to 15 nM. The molecule also yielded an EC50 in the assay on SMN2 Protein of 0.01 to 15 nM.
Regarding `CN(c1cnc(-c2cc3ncn(C)c(=O)c3cc2O)nn1)C1C[C@]2(C)CCC(N2)[C@H]1F` (some centres unmarked) [Compound 36], the IC50 in assay [1] fell in the range of 16 to 50 nM. In the assay on SMN2 Protein, the EC50 is 16 to 50 nM.
Molecule `CN(c1cnc(-c2cc3cnn(C)c(=O)c3cc2O)nn1)C1CC2CCC(C)(N2)C1F` (centres unmarked) [Compound 184] gave an IC50 in assay [1] of 0.01 to 15 nM. The molecule also came in with an EC50 in the assay on SMN2 Protein of 0.01 to 15 nM.
The molecule `Cc1nc2cc(O)c(-c3ncc(N(C)[C@H]4C[C@@H]5CCC(N5)[C@H]4F)nn3)cc2nc1C` [Compound 56] returned an IC50 in assay [1] of 0.01 to 15 nM. Besides, the EC50 in the assay with SMN2 Protein was in the range of 16 to 50 nM.
The like results for `CCn1ccc2cc(O)c(-c3ncc(N(C)[C@@H]4C[C@H]5CCC(N5)[C@@H]4F)nn3)cc2c1=O` [Compound 83] were, in that order, 101 to 500 nM and 16 to 50 nM.
Take `CCN1C=C(F)c2cc(-c3ncc(N(C)[C@@H]4CC5CCC(N5)[C@@H]4F)nn3)c(O)cc2O1` (some centres unmarked) [Compound 162]: the half-inhibitory concentration (IC50) in assay [1] was 51 to 100 nM. This molecule also displayed a concentration giving a half-maximal response (EC50) in the assay with SMN2 Protein of 0.01 to 15 nM.
The like results for `Cc1cc2cc(O)c(-c3ncc(N(C)[C@H]4CC5CCC(N5)[C@H]4F)nn3)cc2cn1` (some centres unmarked) [Compound 46] were, in that order, 0.01 to 15 nM and 0.01 to 15 nM.
The molecule `CN(c1cnc(-c2cc3c(=O)ccoc3cc2O)nn1)[C@@H]1CC2CC[C@H](N2)[C@@H]1F` [Compound 75] registered an IC50 in assay [1] of 101 to 500 nM. The molecule further returned an EC50 in the assay with SMN2 Protein of 16 to 50 nM.
The like results for `CN(c1cnc(-c2cc3ncccc3cc2O)nn1)[C@H]1C[C@@H]2CCC(N2)[C@H]1F` [Compound 58] were, in that order, 16 to 50 nM and 16 to 50 nM.
The molecule `CN(c1cnc(-c2cc3ncn(C(F)F)c(=O)c3cc2O)nn1)[C@@H]1C[C@H]2CCC(N2)[C@@H]1F` [Compound 196] gave a 50% inhibitory concentration (IC50) in assay [1] of 16 to 50 nM. For the same molecule, in the assay on SMN2 Protein, the EC50 was in the range of 51 to 100 nM.
Molecule `CN(c1cnc(-c2cc3ccn(C)c(=O)c3cc2O)nn1)[C@@H]1CC2CC[C@](C)(N2)[C@@H]1F` [Compound 172] came in with an IC50 in assay [1] of 0.01 to 15 nM. In the assay with SMN2 Protein, the 50% effective concentration (EC50) was 0.01 to 15 nM.

The values above are taken from US20230331718A1, “COMPOSITIONS FOR MODULATING SPLICING” (Skyhawk Therapeutics, Inc., priority 2020, published 2023).
